The record followed here is PubChem BioAssay (NCI).

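Five compound concentrations were applied to cells in 96-well plates for 48 hours; endpoints were derived by simple linear interpolation of the resulting dose-response curve. GI50 is the concentration that inhibits growth by half. TGI marks complete inhibition of growth.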

Among the test systems are EKVX NSCLC; HCT-15 colon; HL-60(TB) leukemia; HT29 colon; MDA-N; NCI-H460 lung; OVCAR-4 ovarian; TK-10 renal; MDA-MB-231 breast.
What all share (experiment): NCI-60 cell line screen, 48 h

As to `CC(=O)Oc1ccc2c(c1)CC[C@@H]1C2[C@@H](O[N+](=O)[O-])C[C@@]2(C)C1CC[C@@H]2O[N+](=O)[O-]` (stereo partly drawn), the TGI in the assay with EKVX NSCLC was 26.6 µM; in the assay on HCT-15 colon, 28.1 µM; in the assay on HL-60(TB) leukemia, 53.6 µM; with HT29 colon, 30.2 µM; in the assay on MDA-N, 28.2 µM; in the assay with NCI-H460 lung it was 28.7 µM. For the same molecule, the TGI in the assay on OVCAR-4 ovarian amounted to 33.3 µM; in the assay on TK-10 renal it was 35.7 µM.

In the case of `COc1c(-c2nc3nc(N4CCN(C)CC4)ccc3[nH]2)cc(OC)c2c1nc(COC(C)=O)n2C`, the TGI in the assay with EKVX NSCLC, in the assay on HCT-15 colon, with HT29 colon, in the assay with MDA-MB-231 breast, in the assay on MDA-N and in the assay with OVCAR-4 ovarian was more than 100 µM each time. In the assay with TK-10 renal, this molecule came in with a TGI of 0.0263 µM.

With `COC(=O)N[C@H](C(=O)O)C(C)O[Si](C)(C)C(C)(C)C` (stereo partly drawn), the TGI in the assay with EKVX NSCLC, in the assay on HCT-15 colon, in the assay on HL-60(TB) leukemia, with HT29 colon, in the assay on MDA-MB-231 breast and with NCI-H460 lung was more than 100 µM in each case. For the same molecule, the TGI with OVCAR-4 ovarian and in the assay with TK-10 renal was more than 100 µM each time.

For `Clc1cccc(NN=Nc2ccc(-c3nc4ccccc4s3)cc2)c1`, the TGI is more than 100 µM in the assay on EKVX NSCLC; more than 100 µM in the assay with HCT-15 colon; 27.2 µM in the assay with HL-60(TB) leukemia; more than 100 µM in the assay on HT29 colon; 80.1 µM in the assay on MDA-N; more than 100 µM in the assay with NCI-H460 lung. Besides, the TGI with OVCAR-4 ovarian and with TK-10 renal was more than 100 µM each time.

In the case of `Cc1oc2c(c1C)S(=O)(=O)C(C#N)=C(N(C)C)N2`, the TGI in the assay with EKVX NSCLC, in the assay on HCT-15 colon, with HT29 colon, in the assay on MDA-MB-231 breast, with MDA-N and in the assay on NCI-H460 lung was more than 100 µM throughout. Also, the TGI in the assay with OVCAR-4 ovarian and in the assay on TK-10 renal was more than 100 µM in each case.

Take `CCN(CC)CCN1C(=O)c2c(c3c4ccccc4[nH]c3c3ccc4ccccc4c23)C1=O`: the GI50 in the assay on EKVX NSCLC is 1.69 µM; in the assay on HL-60(TB) leukemia, 2.04 µM; with NCI-H460 lung, 1.08 µM; in the assay with OVCAR-4 ovarian it was 1.58 µM; in the assay with TK-10 renal it was 1.77 µM. Besides, the TGI in the assay on EKVX NSCLC amounted to 3.32 µM; in the assay with HL-60(TB) leukemia it was 4.35 µM; in the assay with NCI-H460 lung, 2.44 µM; in the assay on OVCAR-4 ovarian, 2.96 µM; in the assay on TK-10 renal, 3.34 µM.

Consider `O=C(/C=C/c1cccc(Oc2ccccc2)c1)NCc1ccc(C(=O)NCCc2ccccc2)cc1`, for which the TGI in the assay on EKVX NSCLC, with HCT-15 colon, with HT29 colon, with MDA-MB-231 breast, in the assay with MDA-N and with NCI-H460 lung was more than 100 µM in each case. Further, the TGI in the assay on OVCAR-4 ovarian and with TK-10 renal was more than 100 µM each time.

Turning to `O=C(Nc1cccc([N+](=O)[O-])c1)c1n[nH]n(-c2cccc([N+](=O)[O-])c2)c1=O`, the TGI in the assay with EKVX NSCLC, in the assay on HL-60(TB) leukemia, in the assay on HT29 colon, in the assay with MDA-MB-231 breast and in the assay with MDA-N was more than 100 µM in each case.

In the case of `c1csc(-c2ccsc2-c2cccs2)c1`, the TGI in the assay on EKVX NSCLC was more than 100 µM; with HCT-15 colon, more than 100 µM; in the assay with HL-60(TB) leukemia, 86.7 µM; in the assay with HT29 colon, more than 100 µM; with MDA-N, more than 100 µM; with NCI-H460 lung, more than 100 µM. For the same molecule, the TGI in the assay with OVCAR-4 ovarian and in the assay with TK-10 renal was more than 100 µM each time.

In the case of `COC1=CC(=O)CC(C)C12Oc1c(Cl)c(OC)cc(OC)c1C2=O` (stereo not drawn), the TGI was more than 100 µM in the assay with EKVX NSCLC; more than 100 µM in the assay on HCT-15 colon; more than 44.1 µM in the assay with HL-60(TB) leukemia; more than 100 µM in the assay with HT29 colon; 32.5 µM with MDA-MB-231 breast; more than 100 µM with NCI-H460 lung. Also, the TGI in the assay with OVCAR-4 ovarian and in the assay on TK-10 renal was more than 100 µM in each case.

For `Cc1csc2c1-n1cccc1C2=O`, the TGI in the assay on EKVX NSCLC, in the assay with HCT-15 colon, in the assay on HT29 colon, in the assay with MDA-MB-231 breast, with MDA-N and in the assay with NCI-H460 lung was more than 100 µM in each case. Moreover, the TGI in the assay with OVCAR-4 ovarian and with TK-10 renal was more than 100 µM throughout.

On to `CC1CC/C(=C\c2ccc(F)cc2)C(=O)/C1=C/c1ccc(F)cc1` (stereo not drawn), for which the TGI with EKVX NSCLC worked out at 17.9 µM; in the assay on HCT-15 colon it was 5.39 µM; in the assay with HT29 colon, 12.1 µM; in the assay with MDA-MB-231 breast, 6.56 µM; in the assay with MDA-N, 13.5 µM; in the assay with TK-10 renal, 8.64 µM.

`COC1=CC2(CC(OC)=C1OC)OC21COc2ccccc2C1=O` (stereo not drawn): the TGI in the assay with EKVX NSCLC, in the assay on HCT-15 colon, in the assay with HL-60(TB) leukemia, with HT29 colon, with MDA-MB-231 breast and with NCI-H460 lung was more than 100 µM throughout. In addition, the TGI in the assay on OVCAR-4 ovarian and in the assay on TK-10 renal was more than 100 µM in each case.

Regarding `Cn1ncc2c(Cl)ncnc21`, the TGI in the assay with EKVX NSCLC, with HCT-15 colon, in the assay on HL-60(TB) leukemia, in the assay on HT29 colon, in the assay with MDA-N and in the assay with NCI-H460 lung was more than 100 µM each time. In addition, the TGI with OVCAR-4 ovarian and in the assay with TK-10 renal was more than 100 µM each time.

For the molecule `COC(=O)c1ccc(C)cc1CC1Cc2ccc(C)cc2C1=O` (stereo not drawn), the TGI with EKVX NSCLC came out at 36.6 µM; with HCT-15 colon it was 13.1 µM; in the assay with HL-60(TB) leukemia, 10.7 µM; in the assay with HT29 colon, 11.1 µM; in the assay with MDA-MB-231 breast, 77.4 µM; in the assay on NCI-H460 lung it was 31.3 µM. For the same molecule, the TGI was 89.5 µM in the assay on OVCAR-4 ovarian and 46.8 µM in the assay on TK-10 renal.

Take `COc1ccccc1NC(=O)CC(=O)N1N=C(N2c3ccccc3Sc3ccccc32)CC1c1ccccc1` (stereo not drawn): the TGI in the assay with EKVX NSCLC, in the assay on HCT-15 colon, with HL-60(TB) leukemia, with HT29 colon, in the assay with MDA-MB-231 breast and in the assay on NCI-H460 lung was more than 100 µM each time. Besides, the TGI in the assay on OVCAR-4 ovarian and with TK-10 renal was more than 100 µM throughout.

Consider `O=C(NC(=O)c1cc(-c2ccccc2)n[nH]1)c1ccccc1`, for which the TGI in the assay on EKVX NSCLC, in the assay on HCT-15 colon, in the assay with HT29 colon, in the assay with MDA-MB-231 breast, in the assay on MDA-N and in the assay on NCI-H460 lung was more than 100 µM throughout. Besides, the TGI in the assay with OVCAR-4 ovarian and in the assay with TK-10 renal was more than 100 µM each time.

Consider `CC(=O)Oc1c(-c2ccccc2)sc2ccccc12`, for which the TGI with EKVX NSCLC was 53 µM; in the assay on HCT-15 colon, 37.1 µM; in the assay with HL-60(TB) leukemia it was 39.6 µM; in the assay on HT29 colon it was 35.3 µM; with MDA-MB-231 breast, 33.4 µM; in the assay on NCI-H460 lung, 27.7 µM. For the same molecule, the values for the TGI with OVCAR-4 ovarian and with TK-10 renal were 73.4 µM and 65.1 µM, respectively.

For `O=C(N/N=C\c1ccc(N(CCCl)CCCl)cc1[N+](=O)[O-])c1cccnc1`, the GI50 in the assay with EKVX NSCLC, in the assay on HCT-15 colon, in the assay with HL-60(TB) leukemia, in the assay on HT29 colon, in the assay with MDA-MB-231 breast and with NCI-H460 lung was more than 100 µM each time. Further, the GI50 in the assay on TK-10 renal is more than 100 µM. Also, the TGI in the assay with EKVX NSCLC, in the assay on HCT-15 colon, with HL-60(TB) leukemia, with HT29 colon, with MDA-MB-231 breast and with NCI-H460 lung was more than 100 µM each time. In the assay on TK-10 renal, this molecule displayed a TGI of more than 100 µM.

Take `NC(CSSCC(N)=NCC12CC3CC(CC(C3)C1)C2)=NCC12CC3CC(CC(C3)C1)C2`: the TGI in the assay with HCT-15 colon was 25 µM; in the assay on HL-60(TB) leukemia, 26.3 µM; in the assay on HT29 colon, 28.4 µM; in the assay with MDA-MB-231 breast, 16.2 µM; in the assay on NCI-H460 lung it was more than 100 µM; in the assay on OVCAR-4 ovarian, 45.3 µM. The same molecule had a TGI with TK-10 renal of 36.3 µM.

As to `C/C=C1\CN(C(=O)OC(C)(C)C)C1C(=O)OC(C)(C)C` (stereo not drawn), the TGI in the assay on EKVX NSCLC, in the assay on HCT-15 colon, in the assay on HL-60(TB) leukemia, with HT29 colon, in the assay with MDA-N and with NCI-H460 lung was more than 100 µM throughout. Further, the TGI in the assay with OVCAR-4 ovarian and in the assay with TK-10 renal was more than 100 µM in each case.

With `COc1cc(OC)cc(-c2n/c(=C\c3c(O)[nH]c4ccc(OC)cc34)cc3c2=Nc2ccccc2-3)c1`, the GI50 is 25.2 µM with EKVX NSCLC; 3.85 µM in the assay on HCT-15 colon; 16.6 µM in the assay on HL-60(TB) leukemia; 2.06 µM with HT29 colon; 1.56 µM in the assay on MDA-MB-231 breast; 2.36 µM in the assay with NCI-H460 lung. The GI50 is 2.21 µM with OVCAR-4 ovarian and 3.82 µM with TK-10 renal. Also, the TGI with EKVX NSCLC amounted to 80.9 µM; with HCT-15 colon it was 15 µM; in the assay on HL-60(TB) leukemia, 36.2 µM; in the assay with HT29 colon it was 4.15 µM; in the assay with MDA-MB-231 breast, 3.26 µM; in the assay with NCI-H460 lung, 5.62 µM. For the same molecule, the TGI was 5.21 µM in the assay with OVCAR-4 ovarian and 9.86 µM with TK-10 renal.

Turning to `Cc1sc2c(c1C)/C(=N\O)c1cccn1-2`, the TGI in the assay with EKVX NSCLC, in the assay on HCT-15 colon, in the assay on HT29 colon, with MDA-MB-231 breast, in the assay with MDA-N and with NCI-H460 lung was more than 100 µM in each case. For the same molecule, the TGI with OVCAR-4 ovarian and in the assay with TK-10 renal was more than 100 µM throughout.
